Experimental data: PubChem BioAssay AID1794818
Activity calls are given as the source filed them.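 The calls were made as follows: active = dose-dependent response absent in non-induced cells, with a sigmoidal fit giving a valid half-maximal concentration; inactive = the rest.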

Biological target: Chromaffin granule amine transporter (Homo sapiens) (UniProt P54219)
Experiment: VMAT1 monoamine transport blockade – FFN206 fluorescent substrate, HEK-293 overexpressing cells, dose response (AID 1794818)
Conditions: HEK-293 SLC18A1 OE, FFN206 uptake fluorescence

Sequence of Chromaffin granule amine transporter (Homo sapiens) (P54219 whole entry, looked up): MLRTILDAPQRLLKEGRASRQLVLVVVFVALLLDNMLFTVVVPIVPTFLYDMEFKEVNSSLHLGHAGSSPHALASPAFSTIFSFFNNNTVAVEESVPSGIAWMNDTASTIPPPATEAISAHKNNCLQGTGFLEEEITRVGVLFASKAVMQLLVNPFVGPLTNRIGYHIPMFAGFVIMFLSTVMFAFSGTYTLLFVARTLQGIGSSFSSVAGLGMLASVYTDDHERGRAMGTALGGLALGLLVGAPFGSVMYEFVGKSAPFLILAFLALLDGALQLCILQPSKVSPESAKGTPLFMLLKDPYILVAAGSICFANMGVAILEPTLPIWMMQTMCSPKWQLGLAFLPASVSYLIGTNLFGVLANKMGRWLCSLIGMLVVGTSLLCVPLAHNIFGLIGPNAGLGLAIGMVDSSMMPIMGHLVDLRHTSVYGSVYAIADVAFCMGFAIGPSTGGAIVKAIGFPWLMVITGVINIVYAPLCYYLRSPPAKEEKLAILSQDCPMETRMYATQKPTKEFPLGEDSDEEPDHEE

Structure (SMILES): COc1cc2c(cc1OC)C1CC(=O)C(CC(C)C)CN1CC2 (stereo not drawn)
- outcome: inactive

Structure (SMILES): CNc1ccc2c(CCN)cc(=O)oc2c1
- IC50: 2000 nM

Structure (SMILES): COC(=O)[C@H]1[C@H]2C[C@@H]3c4[nH]c5cc(OC)ccc5c4CCN3C[C@H]2C[C@@H](OC(=O)c2cc(OC)c(OC)c(OC)c2)[C@@H]1OC
- IC50: 50 nM
